Source: patent US20210405025A1, “IDENTIFYING COMPOUNDS FOR TREATING CANCER AND USE THEREOF” (THE UAB RESEARCH FOUNDATION, priority 2018, published 2021)
Where a name gives a salt, the structure may show the parent alone.

Test system: relapsed AML cells
Assay: Drug sensitivity assay, 1,536-well, 3-day culture with individual approved drugs at 10 μM, viability by alamarBlue
Type: cell-based, human
Details: not given
Summary of the method: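 Three-day exposure of primary AML cells to individual drugs in 1,536-well format, viability read as percent live cells. Cells were thawed, cultured overnight, sorted by FACS for viable blasts and plated at 4,000-4,500 cells/5 μL in cytokine-supplemented IMDM/BIT medium.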

In the case of `COC(=O)C1=C(C)NC(C)=C(C(=O)OCCCN2CCC(c3ccccc3)(c3ccccc3)CC2)[C@H]1c1cccc([N+](=O)[O-])c1` [NIGULDIPINE], the “#Cases >70% cell death” value is reported as 12.

Same assay, conditions: number of relapsed AML cases out of 18 tested with >70% cell death; 10 μM, 3-day culture

Point of comparison: `C[C@H]1C[C@@H]2[C@H]([C@@H](O)C[C@@]3(C)[C@H]2CC[C@]3(O)C(=O)CO)[C@@]2(C)C=CC(=O)C=C12` [METHYLPREDNISOLONE], “#Cases >70% cell death” value 1. Against it:
- CN(C)C[C@@H]1CCn2cc(c3ccccc32)C2=C(C(=O)NC2=O)c2cn(c3ccccc23)CCO1 [LY333531] — higher, 12
- COC(=O)C1=C(C)NC(C)=C(C(=O)OCCN2CCN(C(c3ccccc3)c3ccccc3)CC2)C1c1cccc([N+](=O)[O-])c1 (centres unmarked) [MANIDIPINE] — higher, 5
- COC(=O)Nc1nc2ccc(C(=O)c3ccccc3)cc2[nH]1 [MEBENDAZOLE] — higher, 5
- CN1CCc2c(c3ccccc3n2Cc2ccccc2)C1 [MEBHYDROLIN] — the same, 1
- CNC[C@H](O)[C@@H](O)[C@H](O)[C@H](O)CO [MEGLUMINE] — the same, 1
- C=C1C[C@H]2[C@@H]3C=C(C)C4=CC(=O)CC[C@]4(C)[C@H]3CC[C@]2(C)[C@@]1(OC(C)=O)C(C)=O [MELENGESTROL ACETATE] — higher, 2
- S=c1nc[nH]c2nc[nH]c12 [MERCAPTOPURINE] — higher, 10
- Cc1cc(C(C)(C)CC(C)(C)C)ccc1OCCOCC[N+](C)(C)Cc1ccccc1.[Cl-] [METHYLBENZETHONIUM CHLORIDE] — higher, 16
- CN(C)c1ccc2nc3ccc(=[N+](C)C)cc-3sc2c1 [METHYLENE BLUE] — higher, 18
- CC[C@H](C)C(=O)O[C@H]1CCC=C2C=C[C@H](C)[C@H](CC[C@@H]3C[C@@H](O)CC(=O)O3)[C@H]21 [MEVASTATIN] — higher, 7
- Clc1ccc(COC(Cn2ccnc2)c2ccc(Cl)cc2Cl)c(Cl)c1 (centres unmarked) [MICONAZOLE] — the same, 1
- O=C1c2c(O)ccc(O)c2C(=O)c2c(NCCNCCO)ccc(NCCNCCO)c21 [MITOXANTRONE] — higher, 18
- CN(C[C@@H]1COCCO1)S(=O)(=O)Nc1ccc2ccc3ncc(-c4cnn(C)c4)cc3c(=O)c2c1 [MK-2461] — higher, 2
- CC(C)C[C@H](NC(=O)CNC(=O)c1cc(Cl)ccc1Cl)B1OC(=O)C(CC(=O)O)(CC(=O)O)O1 [MLN9708] — the same, 1
- C[C@@H]1C[C@H]2[C@@H]3CCC4=CC(=O)C=C[C@]4(C)[C@@]3(Cl)[C@@H](O)C[C@]2(C)[C@@]1(OC(=O)c1ccco1)C(=O)CCl [MOMETASONE FUROATE] — higher, 2
- FC(F)(F)c1ccc(/C=C/c2nc(COc3ccc(CCCCn4ccnn4)cc3)co2)cc1 [MUBRITINIB] — the same, 1
- COc1c(C)c2c(c(O)c1C/C=C(\C)CCC(=O)OCCN1CCOCC1)C(=O)OC2 [MYCOPHENOLATE MOFETIL] — higher, 5
- COc1c(C)c2c(c(O)c1C/C=C(\C)CCC(=O)O)C(=O)OC2 [MYCOPHENOLIC ACID] — higher, 5
- CC[C@@H](C(=O)O)[C@@H]1O[C@@H]([C@@H](C)[C@H](O)[C@H](C)C(=O)[C@H](CC)[C@H]2O[C@]3(C=C[C@@H](O)[C@]4(CC[C@@](C)([C@H]5CC[C@](O)(CC)[C@H](C)O5)O4)O3)[C@H](C)C[C@@H]2C)[C@@H](C)C[C@@H]1C [NARASIN] — higher, 8
- CCc1nn(CCCN2CCN(c3cccc(Cl)c3)CC2)c(=O)n1CCOc1ccccc1 [NEFAZODONE] — the same, 1
- CN1CCOC(c2ccccc2)c2ccccc2C1 (centres unmarked) [NEFOPAM] — higher, 2
- O=C(Nc1ccc([N+](=O)[O-])cc1Cl)c1cc(Cl)ccc1O [NICLOSAMIDE] — the same, 1
- Cc1ccc2nc(N)[nH]c(=O)c2c1Sc1ccncc1 [NOLATREXED DIHYDROCHLORIDE] — the same, 1
- COc1ccc(-c2ccc3ncc4c(c3c2)n(-c2ccc(N3CCNCC3)c(C(F)(F)F)c2)c(=O)n4C)cn1 [NVP-BGT226] — higher, 8
- COC1=CC(c2cc3ccccc3[nH]2)=N/C1=C\c1[nH]c(C)cc1C [OBATOCLAX] — higher, 2
- CCCCC(CC)COC(=O)C(C#N)=C(c1ccccc1)c1ccccc1 (centres unmarked) [OCTOCRYLENE] — the same, 1
- Cc1nccn1CC1CCc2c(c3ccccc3n2C)C1=O (centres unmarked) [ONDANSETRON (Zofran), ONDANSETRON] — the same, 1
- CCCCCCCCCCC[C@@H](C[C@@H]1OC(=O)[C@H]1CCCCCC)OC(=O)[C@H](CC(C)C)NC=O [ORLISTAT] — higher, 9
- C#Cc1cccc(Nc2ncnc3cc(OCCOC)c(OCCO)cc23)c1 [OSI-420] — higher, 3
- C=CC(=O)Nc1cc(Nc2nccc(-c3cn(C)c4ccccc34)n2)c(OC)cc1N(C)CCN(C)C [OSIMERTINIB (tagrisso), OSIMERTINIB] — the same, 1
- CCCCCCCCOc1ccccc1C(=O)Nc1ccc(C(=O)OCC[N+](C)(CC)CC)cc1 [OTILONIUM BROMIDE] — higher, 4
- C[C@@H]1O[C@@H](O[C@H]2C[C@@H](O)[C@]3(CO)[C@H]4[C@H](O)C[C@]5(C)[C@@H](C6=CC(=O)OC6)CC[C@]5(O)[C@@H]4CC[C@]3(O)C2)[C@H](O)[C@H](O)[C@H]1O [OUABAIN] — higher, 18
- CCN(CC)CCOCCOC(=O)C(CC)(CC)c1ccccc1.O=C(O)CC(O)(CC(=O)O)C(=O)O [OXELAIDIN CITRATE] — higher, 2
- CN(C(=O)CN(CCO)CC(=O)N(C)C(C)(C)Cc1ccccc1)C(C)(C)Cc1ccccc1 [OXETHAZAINE] — the same, 1
- CCCOc1ccc2nc(NC(=O)OC)[nH]c2c1 [OXIBENDAZOLE] — higher, 5
- Clc1ccc(CO/N=C(\Cn2ccnc2)c2ccc(Cl)cc2Cl)c(Cl)c1 [OXICONAZOLE] — the same, 1
- CC(=O)O[C@H]1C(=O)[C@@]2(C)[C@H]([C@H](OC(=O)c3ccccc3)[C@]3(O)C[C@H](OC(=O)[C@H](O)[C@@H](NC(=O)c4ccccc4)c4ccccc4)C(C)=C1C3(C)C)[C@]1(OC(C)=O)CO[C@@H]1C[C@@H]2O [PACLITAXEL] — higher, 5
- Cc1[nH]c2ccccc2c1CCNCc1ccc(/C=C/C(=O)NO)cc1 [PANOBINOSTAT] — the same, 1
- Cc1ccc(Nc2nccc(N(C)c3ccc4c(C)n(C)nc4c3)n2)cc1S(N)(=O)=O [PAZOPANIB] — higher, 4
- C[C@H]1COc2c(C3(N)CC3)c(F)cc3c(=O)c(C(=O)O)cn1c23 [PAZUFLOXACIN] — the same, 1
- OC1(c2ccc(Cl)c(C(F)(F)F)c2)CCN(CCCC(c2ccc(F)cc2)c2ccc(F)cc2)CC1 [PENFLURIDOL] — higher, 14
- N=C(N)c1ccc(OCCCCCOc2ccc(C(=N)N)cc2)cc1 [PENTAMIDINE] — higher, 2
- C1CCC(C(CC2CCCCN2)C2CCCCC2)CC1 (centres unmarked) [PERHEXILINE MALEATE] — higher, 13
- OCCN1CCN(CCCN2c3ccccc3Sc3ccc(Cl)cc32)CC1 [PERPHENAZINE] — higher, 2
- Cn1cc(-c2[nH]c3cc(NC(=O)[C@H](N)C4CCCCC4)cc4c3c2C=NNC4=O)cn1 [PF-00477736] — higher, 13
- CN(c1ncccc1CNc1nc(Nc2ccc3c(c2)CC(=O)N3)ncc1C(F)(F)F)S(C)(=O)=O [PF-562271] — higher, 18
- O=C(Nc1cccnn1)N1CCC(=Cc2cccc(Oc3ccc(C(F)(F)F)cn3)c2)CC1 [PF-4457845] — the same, 1
- CC1(C)CC(=O)c2c(C(F)(F)F)nn(-c3ccc(C(N)=O)c(N[C@H]4CC[C@H](O)CC4)c3)c2C1 [PF-04928473] — higher, 18
- CC(=O)Nc1ccc([C@H](C)C(=O)Nc2ncc(C(C)C)s2)cc1 [PHA-690509] — higher, 11
- O=C1NCCc2[nH]c(-c3ccncc3)cc21 [PHA-767491] — higher, 18
- CC(C)CC(=O)Nc1n[nH]c2c1CN(C(=O)C1CCN(C)CC1)C2(C)C [PHA-793887] — higher, 16
- O=C(O)c1ccccc1C(=O)Nc1ccc(S(=O)(=O)Nc2nccs2)cc1 [PHTHALYLSULFATHIAZOLE] — the same, 1
- CC[C@@H]1/C=C(\C)C[C@H](C)C[C@H](OC)[C@H]2O[C@@](O)(C(=O)C(=O)N3CCCC[C@H]3C(=O)O[C@H](/C(C)=C/[C@@H]3CC[C@H](Cl)[C@H](OC)C3)[C@H](C)[C@@H](O)CC1=O)[C@H](C)C[C@@H]2OC [PIMECROLIMUS] — higher, 2
- O=c1[nH]c2ccccc2n1C1CCN(CCCC(c2ccc(F)cc2)c2ccc(F)cc2)CC1 [PIMOZIDE] — the same, 1
- CCc1ccc(CCOc2ccc(CC3SC(=O)NC3=O)cc2)nc1 (centres unmarked) [PIOGLITAZONE] — higher, 8
- Cc1cc(CC(C)CC(C)(C)C)n(O)c(=O)c1.NCCO (centres unmarked) [PIROCTONE OLAMINE] — higher, 13
- CCn1cc(C(=O)O)c(=O)c2cnc(N3CCCC3)nc21 [PIROMIDIC ACID] — higher, 5
- CC(C)(C)c1[nH]cnc1/C=c1\[nH]c(=O)/c(=C/c2ccccc2)[nH]c1=O [PLINABULIN] — higher, 12
- COc1cc([C@@H]2c3cc4c(cc3[C@H](O)[C@H]3COC(=O)[C@H]23)OCO4)cc(OC)c1OC [PODOFILOX] — higher, 13
- Cc1ccc(C(=O)Nc2ccc(CN3CCN(C)CC3)c(C(F)(F)F)c2)cc1C#Cc1cnc2cccnn12 [PONATINIB] — higher, 18
